Measurements as given in patent US10308631B2, “Selective anti-cancer compounds” (NATIONAL UNIVERSITY OF SINGAPORE, priority 2015, dated 2019).

Experiments:
[1] = tested on: pH3 (Ser10) and LC3 in BJ transformed cells; test: Immunoblot classification of compounds by pH3 and LC3 (FIG. 4); format: cell-based, human; conditions: 5 μM, 24 h
Experimental: (§1) FIG. 4 compares the ability of Compound 1 (a131), and various derivatives thereof (referred to using their code numbers for brevity; the designated chemical compound for each code number is provided in the chemical examples section below), to inhibit autophagy and/or mitosis. BJ transformed cells were treated with 5 μM of various Compounds as shown, for 24 h. Cells were harvested and total lysates were analysed by detecting the mitotic marker phospho-histone H3 at serine 10 (pH3 (Ser10)) and the autophagosome marker LC3. Antibodies raised against β-actin were used as an internal loading control.
(§2) Derivatives of Compound 1 were tested to see if they had similar dual activity, or presented only one of the activities of Compound 1. The protocol for immunoblot analysis described in Biology Example 1 was applied to the additional indicated compounds.

[2] = tested on: mitotic marker phospho-histone H3 at serine 10 (pH3 (Ser10)) in transformed BJ cells; test: Immunoblot analysis of mitotic marker pH3 (Ser10), derivatives of Compound 1; format: cell-based; conditions: Homo sapiens, band intensities pH3(Ser10)/β-actin vs DMSO control, 24 h
Experimental: as §1
(§3) The ability of Compound 1 to inhibit lysosome function was examined using immunoblotting. HeLa cervical cancer cells were cultured in Dulbecco's modified Eagle's medium (DMEM) supplemented with 10% Fetal Bovine Serum (FBS, Thermo Scientific). The HeLa cells were treated with different concentrations of Compound 1 (0.625, 1.25, 2.5, 5 and 10 μM, dimethyl sulfoxide (DMSO, Kanto Kagaku)), chloroquine (CQ) (1.25, 2.5, 10, 50 and 100 μM, DMSO) or DMSO for 6 h. Then, the treated cells were harvested and lysed in 1% triton lysis buffer [25 mM Tris HCl (pH8.0), 150 mM NaCl, 1% triton-X100, 1 mM dithiothreitol (DTT), protease inhibitor mix (Complete Mini, Roche) and phosphatase inhibitor (PhosphoStop, Roche)]. The proteins in total lysates were boiled with sample buffer (60 mM Tris-HCl (pH 6.8), 25% glycerol, 2% SDS, 14.4 mM 2-mercaptoethanol, 0.1% bromophenol blue) and resolved by 14% tris-glycine sodium dodecyl sulfate polyacrylamide gel electrophoresis (SDS-PAGE) and subjected to immunoblot analysis.
(§4) Defects in lysosome function and inhibition of autophagy can be measured by accumulation of LC3-phosphatidylethanolamine conjugated non-soluble form (LC3-II), which are converted from soluble LC3-I. Thus, antibodies raised against LC3 (Cell Signaling, Cat#4108) were used to determine lysosomal function and integrity. Antibodies raised against phosphorylated histone H3 at serine 10 residue (pH3) (Cell signaling, Cat#3377) were used as the marker for mitotic dysfunction and arrest. Antibodies raised against β-actin (Millipore, Cat#MAB1501) were used as an internal loading control. The inhibitory ability of Compound 1 was also quantitatively compared to CQ.
as §2
(§5) Activities of compounds were determined by two independent experiments. First, Compounds were classified according to the intensity of increase in each of the mitotic marker phospho-histone H3 at serine 10 (pH3 (Ser 10)) and the autophagosome marker LC3, respectively, at 1.25 μM, when compared with 1.25 μM Compound 1 (a131).
(§6) Compounds classified “++” on either “mitosis” or “inhibits lysosome” show similar increase in each of the mitotic marker phospho-histone H3 at serine 10 (pH3 (Ser10)) and the autophagosome marker LC3, respectively, at 2.5 μM, when compared with 1.25 μM Compound 1 (a131); and compounds classified “+” on either “mitosis” or “inhibits lysosome” show similar increase in each of the mitotic marker phospho-histone H3 at serine 10 (pH3 (Ser10)) and the autophagosome marker LC3, respectively, at a concentration range of 5-10 μM, when compared with 1.25 μM Compound 1 (a131).
Compounds classified “+/−” on either “mitosis” or “inhibits lysosome” show less increase in each of the mitotic marker phospho-histone H3 at serine 10 (pH3 (Ser10)) and the autophagosome marker LC3, respectively, at a concentration range of 5-10 μM, when compared with 1.25 μM Compound 1 (a131).
Next, the ability of Compound 1 and its derivatives to induce mitotic arrest in transformed BJ cells was quantified as the fold induction of band intensities [pH3(Ser10)/β-actin] in comparison with DMSO control. […]

[3] = tested on: autophagosome marker LC3 (LC3 II/LC3 I) in transformed BJ cells; test: Immunoblot analysis of autophagosome marker LC3 (lysosome function), derivatives of Compound 1; format: cell-based; conditions: Homo sapiens, band intensities LC3 II/LC3 I vs DMSO control, 24 h
Experimental: as §1, §3, §4, §2, §5, §6
Compounds classified “+/−” on either “mitosis” or “inhibits lysosome” show less increase in each of the mitotic marker phospho-histone H3 at serine 10 (pH3 (Ser10)) and the autophagosome marker LC3, respectively, at a concentration range of 5-10 μM, when compared with 1.25 μM Compound 1 (a131). […]

[4] = tested on: non-transformed normal BJ cells; test: BrdU incorporation and FACS analysis (cell cycle arrest); format: cell-based, human; conditions: 24 h; 2.5 and 5 μM (FIG. 9A, 9C)
Experimental: A: is output from a FACS analysis of isogenic-non-transformed, without (panels a-c) (WT) or with (panels d-f) shRNA-mediated knockdown of p53 (p53KD), and oncogene-transformed BJ cells (panels g-i), each treated with 0, 5 or 2.5 μM Compound 1 (a131) for 24 h. Cells were doubly stained with PI (horizontal axis) and BrdU (vertical axis). The BrdU-positive population in panels a-c are indicated as arrows. B: is a diagrammatic representation of an immunoblot analysis showing isogenic non-transformed (normal) and oncogene-transformed BJ cells (transformed) treated with Compound 1 (a131) at 0, 2.5 or 5 μM for 24 h or 48 h. Cells were harvested and total lysates were analysed by detecting p53 and p21. Antibodies raised against β-actin were used as an internal loading control. C and D are histograms showing the percentage of bromodeoxyuracil (BrdU)-positive non-transformed (normal) BJ cells. C: Cells were treated with Group 1 Compound 1 (a131) at 2.5 and 5 μM, Compound 23 (b36) at 2.5 and 5 μM, and Compound 21 (b35) at 5 μM, and Group 2 Compound 25 (a166) at 2.5 and 5 μM, for 24 h. Cells were doubly stained with propidium iodide (PI) and BrdU, and subjected to FACS analysis. The BrdU-positive population are plotted as bars. D: Cells were treated with Group 1 Compound 1 (a131), Compound 16 (b5), and Compound 17 (b9); Group 2 Compound 13 (b12), Compound 12 (b16) and Compound 25 (a166), and Group 3 Compound 3 (a159) at 5 μM for 48 h. The percentage of cells with BrdU positive population, in comparison with DMSO control vehicle, is shown with mean values±S.D. (n=3).
Isogenic non-transformed and oncogene-transformed BJ cells (cultured as in Biology Example 3) were treated with Compound 1 at final concentrations of 2.5 and 5 μM for 24 h. The treated cells were then treated with 30 μM final concentration of 5-bromo-2′-deoxyuridine (BrdU, SIGMA) for 1 h to detect DNA synthesis as a marker for cell proliferation. Subsequently, the cells were fixed in EtOH at 4° C. overnight and permeabilized with 2N HCl/0.5% Triton X-100 for 30 min. The cells were then treated with 0.1M sodium tetraborate for 2 min and stained with anti-BrdU antibody (Invitrogen, Cat#B35129) for 60 min, followed by a 30 min treatment with 20 μg/mL of propidium iodide (PI) and 10 μg/mL RNaseA.
Furthermore, the abilities of additional five (5) Compounds to arrest cells at the stage of G1/S phase of the cell cycle were evaluated. […] The abilities of these Compounds to arrest cells at the stage of G1/S phase of the cell cycle were then measured by using BrdU incorporation assay and FACS analysis. The percentage of cells with BrdU positive population in comparison with DMSO control vehicle was determined and plotted with mean values±S.D. (n=3).

| SMILES | Inhibition of lysosome function and/or mitosis (FIG. 4) [1] | fold induction at 5 µM [2] | fold induction at 5 µM [3] | BrdU-positive cell population [4] |
| --- | --- | --- | --- | --- |
| N#C/C(=C\c1cccc2cnccc12)c1cn(C(=O)C2CCNCC2)c2ccccc12 [Compound 21, (Z)-3-(isoquinolin-5-yl)-2-(1-(piperidine-4-carbonyl)-1H-indol-3-yl)acrylonitrile] | exhibit the dual properties of inhibiting both lysosome function and mitosis | 10.1 | 7.3 | substantially decreased the population of BrdU-positive cells |
| N#C/C(=C\c1cccc2cnccc12)c1cn(C(=O)C2CCN(C(=O)CCCC[C@@H]3SC[C@@H]4NC(=O)N[C@@H]43)CC2)c2ccccc12 [Compound 23, (Z)-3-(isoquinolin-5-yl)-2-(1-(1-(5-((3aS,4S,6aR)-2-oxohexahydro-1H-thieno[3,4-d]imidazol-4-yl)pentanoyl)piperidine-4-carbonyl)-1H-indol-3-yl)acrylonitrile] | exhibit the dual properties of inhibiting both lysosome function and mitosis | 18.6 | 5.7 | substantially decreased the population of BrdU-positive cells |
| N#C/C(=C\c1cccc2cnccc12)c1cn(C(=O)CCNC(=O)CCCC[C@@H]2SC[C@@H]3NC(=O)N[C@@H]32)c2ccccc12 [Compound 24, N-(3-(3-((Z)-1-cyano-2-(isoquinolin-5-yl)vinyl)-1H-indol-1-yl)-3-oxopropyl)-5-((3aS,4S,6aR)-2-oxohexahydro-1H-thieno[3,4-d]imidazol-4-yl)pentanamide] | exhibit the dual properties of inhibiting both lysosome function and mitosis | 3.2 | 3.3 |  |
| C(=C\c1c[nH]c2ccccc12)/c1cncc2cnccc12 [Compound 26, 4-((E)-2-(1H-indol-3-yl)vinyl)-2,7-naphthyridine] | inhibit lysosome function only | 1.2 | 2.7 |  |
| C(=C\c1c[nH]c2ncccc12)/c1cccc2cnccc12 [Compound 27, 5-((E)-2-(1H-pyrrolo[2,3-b]pyridin-3-yl)vinyl)isoquinoline] | inhibit lysosome function only | 1.2 | 2 |  |
| COCCOCC(=O)n1cc(/C(C#N)=C/c2cccc3cnccc23)c2ccccc21 [Compound 30, (Z)-2-(1-(2-(2-methoxyethoxy)acetyl)-1H-indol-3-yl)-3-(isoquinolin-5-yl)acrylonitrile] | exhibit the dual properties of inhibiting both lysosome function and mitosis | 12.8 | 4.1 |  |
| N#C/C(=C\c1cccc2cnccc12)c1c[nH]c2cc(CN3CCCC3)ccc12 [Compound 31, (Z)-3-(isoquinolin-5-yl)-2-(6-((pyrrolidin-1-yl)methyl)-1H-indol-3-yl)acrylonitrile] | inhibit lysosome function only | 1.1 | 5.7 |  |
| N#C/C(=C\c1cccc2cnccc12)c1c[nH]c2ccc(CN3CCCC3)cc12 [Compound 32, (Z)-3-(isoquinolin-5-yl)-2-(5-((pyrrolidin-1-yl)methyl)-1H-indol-3-yl)acrylonitrile] | inhibit lysosome function only | 1 | 3.3 |  |
| N#C/C(=C\c1cccc2cnccc12)c1c[nH]c2c(CN3CCCC3)cccc12 [Compound 33, (Z)-3-(isoquinolin-5-yl)-2-(7-((pyrrolidin-1-yl)methyl)-1H-indol-3-yl)acrylonitrile] | inhibit lysosome function only | 0.8 | 3.7 |  |
| N#C/C(=C\c1cccc2cnccc12)c1n[nH]c2ccccc12 [Compound 34, (Z)-2-(1H-indazol-3-yl)-3-(isoquinolin-5-yl)acrylonitrile] | inhibit lysosome function only | 1.4 | 2 |  |
